# Experimental data from patent US7410974B2, “Halogenated Quinazolinyl nitrofurans as antibacterial agents” (Ulysses Pharmaceutical Products, Inc., priority 2003, dated 2008).
# Read-outs that look alike come from different tables or passages of the source.
# Experiments:
# H. influenzae ATCC 49766 [1] = assay: Minimal Bactericidal Concentration (MBC); format: cell-based; conditions: Haemophilus influenzae, ATCC49766, 99.9% killing
# Procedure, shortened: (§1)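 Wells lacking visible growth in the MIC plates are sampled, at least 5 per series, and spread onto TSA. The dishes are kept at 35° C. for exactly 24 h, then bacterial colonies are enumerated.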
# H. influenzae ATCC 49247 [2] = assay: Minimal Bactericidal Concentration (MBC); format: cell-based; conditions: Haemophilus influenzae, ATCC49247, 99.9% killing
# Procedure, shortened: as §1
# B. catarrhalis ATCC 8176 [3] = assay: MIC broth microdilution (NCCLS), fastidious bacteria; format: cell-based, Branhamella (Moraxella) catarrhalis; conditions: Moraxella catarrhalis, ATCC8176, HTM, 5% CO2
# Procedure, shortened: (§2)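 NCCLS broth microdilution; inoculum 10^5-10^6 CFU/ml; 2-fold serial dilutions; 35° C, 24 h; A650 plus visual read. Media: MHBCA (S. saprophyticus, E. faecium), MHBCA + 2% laked horse blood (Listeria), HTM (Haemophilus), the last two under 5% CO2.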
# [4] = tested on: S. epidermidis ATCC 12228; assay: MIC broth microdilution (NCCLS); format: cell-based, Staphylococcus epidermidis; conditions: Staphylococcus epidermidis, ATCC12228; S. epidermidis ATCC 12228; read-out: MIC
# Procedure, shortened: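 Susceptibility by NCCLS microdilution: checked inoculum 10^5-10^6 CFU/ml, 24 h at 35° C, and growth assessed at 650 nm and by eye. Haemophilus was tested in HTM medium and Listeria with laked horse blood, each incubated under 5% CO2.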
# S. aureus ATCC 29213 = assay: MIC broth microdilution (NCCLS); format: cell-based, Staphylococcus aureus; conditions: Staphylococcus aureus, ATCC29213; S. aureus ATCC 29213; read-out: MIC
# [5] = tested on: S. saprophyticus ATCC 15305; assay: MIC broth microdilution (NCCLS); format: cell-based, Staphylococcus saprophyticus; conditions: Staphylococcus saprophyticus, ATCC15305; S. saprophyticus ATCC 15305; read-out: MIC
# Procedure, shortened: as §2
# H. influenzae ATCC 49766 [6] = assay: MIC broth microdilution (NCCLS), fastidious bacteria; format: cell-based; conditions: Haemophilus influenzae, ATCC49766, HTM, 5% CO2
# Procedure, shortened: as §2
# H. influenzae ATCC 49247 [7] = assay: as above; format: cell-based; conditions: Haemophilus influenzae, ATCC49247, HTM, 5% CO2
# Procedure, shortened: as §2
# E. faecalis ATCC 29212 = assay: MIC broth microdilution (NCCLS); format: cell-based, Enterococcus faecalis; conditions: Enterococcus faecalis, ATCC29212; E. faecalis ATCC 29212; read-out: MIC
# E. faecium ATCC 35667 = assay: MIC broth microdilution (NCCLS); format: cell-based, Enterococcus faecium; conditions: Enterococcus faecium, ATCC35667, E. faecium ATCC 35667; read-out: MIC
# Procedure, shortened: as §2
# [8] = tested on: E. coli ATCC 35150 (O157:H7); assay: MIC broth microdilution, E. coli strains; format: cell-based; conditions: Escherichia coli, ATCC35150
# Description: (§3) Minimal Inhibitory Concentration (MIC) Determination. Bacteria (primary strain panel, TABLE 1). Susceptibility tests were performed following the recommendations from the National Committee for Clinical Standards (NCCLS). The MICs were determined by a broth microdilution technique using a final volume of 100 μl of cation-adjusted Mueller Hinton Broth (MHBCA) and a bacterial inoculum of 10^5-10^6 Colony Forming Units (CFU)/ml. The inocula were verified and precisely determined by applying 10-μl drops of 10-fold dilutions onto Triptic Soy Agar plates. The CFU were counted after an incubation of 24 h at 35° C. Any experiment showing an inoculum that was more or less than 10^5-10^6 CFU/ml was rejected. Control antibiotics and test compounds were prepared at a concentration equivalent to 2-fold the highest desired final concentration. Compounds were then diluted directly in the 96-well microtiter plates by serial 2-fold dilutions using a multichannel pipette. Microtiter plates were incubated during 24 h at 35° C. and growth was recorded by using a microtiterplate reader at 650 nm as well as by visual observation. The MIC was defined as the lowest concentration of compound yielding no visible growth. […] Fastidious bacteria. The medium used for Listeria monocytogenes, Neisseria meningitidis, and Campylobacter jejuni was MHBCA containing 2% laked horse blood. The medium used for Haemophilus influenzae and Branhamella (Moraxella) catarrhalis was HTM as recommended by the NCCLS. Cultures of these fastidious bacteria were incubated at 35° C. in a 5% CO2 atmosphere. […] The medium used for Bacteroides fragilis was Wilkins Chalgren broth and growth was allowed under an anaerobic atmosphere at 35° C. for 48 hours.
# (§4) Finally, compounds were also tested against populations of various clinical strains (antibiotic resistant strain panel, TABLE 1).
# E. coli Ec117c (EIEC) = assay: MIC broth microdilution, E. coli strains; format: cell-based; conditions: Escherichia coli, pathotype EIEC
# Description: as §3, §4
# [9] = tested on: E. coli d25-ALR-pen14 (O157:H7); assay: MIC broth microdilution, E. coli strains; format: cell-based; conditions: Escherichia coli
# Description: as §3, §4
# E. coli Ec119c (EIEC) = assay: MIC broth microdilution, E. coli strains; format: cell-based; conditions: Escherichia coli, pathotype EIEC
# Description: as §3, §4
# [10] = tested on: E. coli d4-OLR-pen10 (O157:H7); assay: MIC broth microdilution, E. coli strains; format: cell-based; conditions: Escherichia coli
# Description: as §3, §4
# E. coli Ec022c (EIEC) = assay: MIC broth microdilution, E. coli strains; format: cell-based; conditions: Escherichia coli, pathotype EIEC
# Description: as §3, §4
# E. coli Ec027c (EIEC) = assay: MIC broth microdilution, E. coli strains; format: cell-based; conditions: Escherichia coli, pathotype EIEC
# Description: as §3, §4
# E. coli Ec118c (EIEC) = assay: MIC broth microdilution, E. coli strains; format: cell-based; conditions: Escherichia coli, pathotype EIEC
# Description: as §3, §4
# E. coli ATCC 25922 = assay: MIC broth microdilution (NCCLS); format: cell-based, Escherichia coli
# E. coli MC4100 = assay: MIC broth microdilution (NCCLS); format: cell-based; conditions: Escherichia coli; E. coli MC4100, pathotype Reference
# Description: as §3
# B. catarrhalis ATCC 8176 [11] = assay: Minimal Bactericidal Concentration (MBC); format: cell-based, Branhamella (Moraxella) catarrhalis; conditions: Moraxella catarrhalis, ATCC8176, 99.9% killing
# Description: Minimal Bactericidal Concentration (MBC). After the microtiter plates were read for the determination of the MIC, a 10-μl sample of each clear well (at least 5 wells without visible growth) was applied onto TSA plates for viable counts determination.
# Petri dishes were incubated at 35° C. for exactly 24 h and bacterial colonies were counted.
# S. aureus MRSA COL = assay: MIC broth microdilution (NCCLS); format: cell-based, Staphylococcus aureus; conditions: Staphylococcus aureus, MRSA, S. aureus MRSA COL; read-out: MIC
# Procedure, shortened: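 Cultures grew 24 h at 35° C in MHBCA from a 10^5-10^6 CFU/ml inoculum against 2-fold compound dilutions, following NCCLS guidance.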
compound,measurement,setting,value
CC1(C)S[C@@H]2[C@H](NC(=O)[C@H](N)c3ccccc3)C(=O)N2[C@H]1C(=O)O [Ampicillin],MBC,H. influenzae ATCC 49766 [1],≤ 0.12 µg/mL
same,MBC,H. influenzae ATCC 49247 [2],4 µg/mL
same,MIC,B. catarrhalis ATCC 8176 [3],≤ 0.03 µg/mL
same,MIC,[4],64 µg/mL
same,MIC,S. aureus ATCC 29213,1 to 2 µg/mL
same,MIC,[5],0.12 µg/mL
same,MIC,H. influenzae ATCC 49766 [6],≤ 0.12 µg/mL
same,MIC,H. influenzae ATCC 49247 [7],2 to 4 µg/mL
same,MIC,E. faecalis ATCC 29212,1 µg/mL
same,MIC,E. faecium ATCC 35667,1 µg/mL
same,MIC,[8],2 µg/mL
same,MIC,E. coli Ec117c (EIEC),16 µg/mL
same,MIC,[9],2 to 4 µg/mL
same,MIC,E. coli Ec119c (EIEC),> 64 µg/mL
same,MIC,[10],2 to 4 µg/mL
same,MIC,E. coli Ec022c (EIEC),> 64 µg/mL
same,MIC,E. coli Ec027c (EIEC),> 64 µg/mL
same,MIC,E. coli Ec118c (EIEC),> 64 µg/mL
same,MIC,E. coli ATCC 25922; E. coli ATCC 25922 (Reference),4 µg/mL
same,MIC,"E. coli ATCC 25922; Escherichia coli, ATCC25922, E. coli ATCC 25922 (Reference), read-out: MIC",4 to 8 µg/mL
same,MIC,E. coli MC4100,4 µg/mL
same,MBC,B. catarrhalis ATCC 8176 [11],≤ 0.03 µg/mL
same,MIC,S. aureus MRSA COL,8 µg/mL
"O=[N+]([O-])c1ccc(C=Cc2nc(Nc3cccc(O)c3)c3cc(F)ccc3n2)o1 [VI, 6-fluoro-2-[2-(5-nitro-2-furyl)vinyl]-4-(m-hydroxyanilino)-quinazoline]",melting point,,241 to 242 °C (dec.)
